Laboratory results from patent publication US4746668A, “Method for treating retinopathy” (Daiichi Seiyaku Co., Ltd., priority 1986, dated 1988).
Where “and” joins values, the source holds several entries; their conditions need not be identical. Equal entries are not always repeated. Where two headings read alike, the source gives them in different places.

Experiments:
retinal vesseles = conditions: injected into retinal artery of rabbit; cited from earlier work
[1] = Acute toxicity (LD50) in rats, oral; conditions: rat, in vivo, administered orally
[2] = test system: human platelet aggregation; assay: Inhibition by Compound A of PAF-induced human platelet aggregation; type: cell-based
Procedure: (§1) Blood was taken from median cubital vein or cephalic vein of normal men aged of 29 to 40, who had taken no anti-inflammatory drug at least for the last 10 days before testing, into a syringe containing 0.1 volume of 40 U/ml heparin aqueous solution (a product of Green Cross Corp., Japan).
The blood obtained in (1) was centrifuged at 190 X g for 7 minutes. The supernatant was taken to obtain the platelets rich plasma (hereinafter, PRP). Platelet counter (a product of Toa Co., Ltd) was used to count the number of platelets.
(§2) Compound A was dissolved in a saline, and the solution obtained was used in the experiment.
(§3) As an aggregation inducing agent, an aqueous solution prepared by dissolving epinephrine or a platelet activating factor (hereinafter, PAF) in 25 mM Tris HCl-130 mM NaCl aqueous solution (pH 7.4) was used in the experiment.
(§4) 5 μl of saline solution of Compound A prepared in 1-4 was added to 1 ml of the whole blood, neutrophil suspension or PRP and an electrode was dipped thereinto. The mixture obtained was incubated for 2 minutes under the conditions that the temperature in cell was 37° C. and the stirring rate was 1000 r.p.m., and then 20 μl of aggregation inducing agent was added to the mixture. 4 minutes later, the variation in impedance (Δ.OMEGA.) was determined using Chrono-log aggregometer (540 type, a product of Chrono-log Co., Ltd). The intensity of the variation gave the aggregation activity. In determining the aggregation of neutrophils, 5 μg/ml of cytochalasin B was added to the incubated mixture, one minute prior to the addition of PAF solution. As a control, saline was used instead of saline solution of Compound A and the aggregation was determined as described above.

diabetic retinopathy = assay: Clinical trial in patients having diabetic retinopathy, funduscopic observation; type: in vivo, human; set-up: key to Funduscopic observation: microaneurysms / Funduscopic observation: dot hemorrhage: +: observed; ±: slightly observed; -: not observed; conditions: 300 to 900 mg daily orally; for Funduscopic observation: microaneurysms / Funduscopic observation: dot hemorrhage: + + at start
Procedure: Compound A was administered orally at dose of 300 to 900 mg daily to patients having diabetic retinopathy for a period of a month to about 2 years. Microaneurysms, dot hemorrhage, retina edema, hard exudate, arterialization and maculopathy in Fundus oculi, which were indications for retinopathy, were investigated using a funduscope.

[3] = test system: human neutrophil aggregation; assay: Inhibition by Compound A of PAF-induced human neutrophil aggregation (Optical method); type: cell-based
Procedure: as §1
10 ml of the blood obtained above was mixed with 3 ml of a 4.5% dextran aqueous solution, and the mixture was allowed to stand for 1 hour at room temperature. The supernatant was taken and centrifuged at 250 X g for 7 minutes. The precipitate was taken, and 3 ml of 0.2% sodium chloride aqueous solution was added thereto to lyse the red blood cells. The mixture was allowed to stand for 75 seconds and 7 ml of a 1.2% sodium chloride aqueous solution was added thereto. The mixture was centrifuged at 250 X g for 7 minutes to obtain the precipitate which contained mainly neutrophils. When the red blood cell was not sufficiently removed, the above procedure for lysis of red blood cell was repeated. The precipitate was washed with 10 ml of a phosphate buffer solution containing 0.5% glucose (hereinafter, PBSG), and the mixture was centrifuged at 250 X g for 7 minutes to take the precipitate. The above washing procedure was repeated twice, and the precipitate obtained was added to PBSG or PBSG containing 0.5% human serum albumin to obtain the neutrophil suspension. It was confirmed that the surviving ratio of nuetrophil in the resulting suspension was over 95% as determined by the trypan blue staining method. A blood cell counter (a product of Nihon Koden Co., Ltd) was used to count the number of neutrophils. The mixture was preserved at 4° C. before use. […]
5 μl of saline solution of Compound A prepared in 1-4) was added to 1 ml of neutrophil suspension and the mixture was incubated for 2 minutes under the conditions that the temperature in cell was 37° C. and the stirring rate was 1,000 r.p.m. […] The aggregation was determined optically using the Chrono-log aggregometer. As a control, saline was used instead of saline solution of Compound A and the aggregation was determined as described above.

human neutrophils = assay: Inhibition by Compound A of PAF-induced adhesion-aggregation of human neutrophils (Impedance method); type: cell-based; conditions: Neutrophil, 10 μM Compound A, 0.02 μM, read-out: Inhibition ratio
Procedure: as §1
10 ml of the blood obtained above was mixed with 3 ml of a 4.5% dextran aqueous solution, and the mixture was allowed to stand for 1 hour at room temperature. The supernatant was taken and centrifuged at 250 X g for 7 minutes. The precipitate was taken, and 3 ml of 0.2% sodium chloride aqueous solution was added thereto to lyse the red blood cells. The mixture was allowed to stand for 75 seconds and 7 ml of a 1.2% sodium chloride aqueous solution was added thereto. […] It was confirmed that the surviving ratio of nuetrophil in the resulting suspension was over 95% as determined by the trypan blue staining method. […]
5 μl of saline solution of Compound A prepared in 1-4 was added to 1 ml of the whole blood, neutrophil suspension or PRP and an electrode was dipped thereinto. […] 4 minutes later, the variation in impedance (Δ.OMEGA.) was determined using Chrono-log aggregometer (540 type, a product of Chrono-log Co., Ltd). […] As a control, saline was used instead of saline solution of Compound A and the aggregation was determined as described above.

platelet aggregation = conditions: as disclosed in U.S. Pat. No. 4,138,491; cited from earlier work
blood glucose level = conditions: as disclosed in U.S. Pat. No. 4,138,491; cited from earlier work
[4] = test system: human whole blood aggregation; assay: Inhibition by Compound A of human whole blood aggregation (Impedance method); type: cell-based
Procedure: as §1, §2, §3, §4

[5] = patient B, left eye, 116 weeks after administration
[6] = patient B, right eye, 116 weeks after administration

CCCCCCCCCCCCCCCCOCC(COP(=O)([O-])OCC[N+](C)(C)C)OC(C)=O (stereo not drawn) [PAF]
state of retinal vessels (retinal vesseles): a sludge-like state is observed in retinal vesseles

c1ccc(C(CC2=NCCN2)c2ccccn2)cc1 (stereo not drawn) [Compound A, 2-(2-phenyl-2-(2-pyridyl))ethyl-2-imidazoline]
LD50 [1]: 867 mg/kg | inhibition at 10 µM ([2]; Homo sapiens, Platelet, 10 μM Compound A, PAF, 2 μM, read-out: Inhibition ratio): 0% | inhibition at 50 µM ([2]; Homo sapiens, Platelet, 50 μM Compound A, PAF, 2 μM, read-out: Inhibition ratio): 45% | inhibition at 100 µM ([2]; Homo sapiens, Platelet, 100 μM Compound A, PAF, 2 μM, read-out: Inhibition ratio): 82% | PAF-induced human platelet aggregation ([2]; low versus high concentration): did not inhibit PAF-induced human platelet aggregation at a low concentration but did at a high concentration | microaneurysms and dot hemorrhage (diabetic retinopathy; 3 patients): disappearance or reduction of microaneurysms and dot hemorrhage were observed | Funduscopic observation: microaneurysms (diabetic retinopathy; patient A, left eye, 58 weeks after administration): - | Funduscopic observation: microaneurysms (diabetic retinopathy; patient A, right eye, 58 weeks after administration): - | Funduscopic observation: dot hemorrhage (diabetic retinopathy; [5]): - | Funduscopic observation: microaneurysms (diabetic retinopathy; [5]): - | Funduscopic observation: dot hemorrhage (diabetic retinopathy; [6]): - | Funduscopic observation: microaneurysms (diabetic retinopathy; [6]): - | Funduscopic observation: dot hemorrhage (diabetic retinopathy; patient C, left eye, 109 weeks after administration): ± | Funduscopic observation: dot hemorrhage (diabetic retinopathy; patient C, right eye, 109 weeks after administration): ± | inhibition at 5 µM ([3]; Homo sapiens, Neutrophil, 5 μM Compound A, PAF, 2 μM, optical method, read-out: inhibition ratio): 68% | inhibition at 10 µM ([3]; Homo sapiens, Neutrophil, 10 μM Compound A, PAF, 2 μM, optical method, read-out: inhibition ratio): 83% | PAF-induced human neutrophil aggregation ([3]; at low concentration): inhibited the PAF-induced human neutrophil aggregation at low concentration | inhibition at 10 µM (human neutrophils): 59% | platelet aggregation (platelet aggregation): inhibits platelet aggregation | blood glucose level (blood glucose level): reduces the blood glucose level | IC50 ([4]; Homo sapiens, in vitro, Epinephrine (2 μM), individual values of n = 3, read-out: IC50): 5.6 µM | IC50 ([4]; Homo sapiens, in vitro, Epinephrine (2 μM), n = 3, read-out: IC50, average ± s.d.): 5.2 ± 0.7 µM | IC50 ([4]; Homo sapiens, induced by PAF (0.02 μM), n=3, read-out: IC50, average): 2.8 µM | IC50 ([4]; Homo sapiens, induced by epinephrine (2 μM), n=3, read-out: IC50): ~5 µM | IC50 ([4]; in vitro, Epinephrine (2 μM), individual values of n = 3, read-out: IC50): 4.2 µM and 5.8 µM | IC50 ([4]; in vitro, PAF (0.02 μM), individual values of n = 3, read-out: IC50): 1.8 µM and 4.6 µM
